The source of these data is ChEMBL document CHEMBL1145204, “Carbonic anhydrase inhibitors: synthesis and inhibition of cytosolic/membrane-associated carbonic anhydrase isozymes I, II, and IX with sulfonamides incorporating hydrazino moieties” (J Med Chem, 2005).

pKi: −log10 of the molar value.

The target of test [1] is Carbonic anhydrase 9 (Homo sapiens, UniProt Q16790).
Description: Inhibitory activity against Carbonic anhydrase IX
Test [2] has as its target Carbonic anhydrase 1 (Homo sapiens, UniProt P00915).
Description: Inhibitory activity against Carbonic anhydrase I

Sequence of Carbonic anhydrase 1 (P00915 whole entry): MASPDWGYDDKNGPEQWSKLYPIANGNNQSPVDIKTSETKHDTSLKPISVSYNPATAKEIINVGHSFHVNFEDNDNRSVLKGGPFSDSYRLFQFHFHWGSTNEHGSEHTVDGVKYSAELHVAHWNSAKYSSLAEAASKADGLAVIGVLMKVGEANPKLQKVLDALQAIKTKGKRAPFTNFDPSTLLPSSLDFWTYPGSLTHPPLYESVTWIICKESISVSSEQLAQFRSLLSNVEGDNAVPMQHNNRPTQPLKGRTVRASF

In the case of `COC(=O)c1ccccc1S(N)(=O)=O`, in test [1], the pKi was 6.17.
On the same count and under the same terms, the value for `NS(=O)(=O)c1ccccc1C(=O)NNC(=O)NS(=O)(=O)c1ccc(Cl)cc1` was 7.14; that for `Cc1ccccc1S(=O)(=O)NC(=O)NNC(=O)c1ccc(S(N)(=O)=O)cc1` was 7.49.
Still for that read-out and setting: the result for `NS(=O)(=O)c1ccc(C(=O)O)cc1` [CARZENIDE] reads 6.46.
Same read-out and setting: the value for `NS(=O)(=O)c1ccccc1C(=O)NNC(=O)NS(=O)(=O)c1ccc(F)cc1` was 7.19.
Regarding `NNc1ccc(S(N)(=O)=O)cc1`, the negative-log Ki (pKi) in test [2] was 5.41.
`NS(=O)(=O)c1ccc(C(=O)NNC(=O)Nc2ccc(-c3ccccc3)cc2)cc1` showed a pKi in test [1] of 8.27.
The same measure, in the same setting: the value for `CC(=O)c1ccc(NC(=O)NNC(=O)c2ccc(S(N)(=O)=O)cc2)cc1` was 8.08; that for `NS(=O)(=O)c1ccc(C(=O)NNC(=O)Nc2ccc(Cl)c(Cl)c2)cc1` was 8.10.
On the same count and under the same terms, the result for `NS(=O)(=O)c1ccccc1C(=O)NNC(=O)NS(=O)(=O)c1ccccc1` reads 7.12.
Still for that read-out and setting: the result for `NNC(=O)c1ccccc1S(N)(=O)=O` reads 6.26; that for `NS(=O)(=O)c1ccc(C(=O)NNC(=O)NS(=O)(=O)c2ccc(Cl)cc2)cc1`, 8.27; that for `NS(=O)(=O)c1ccc(C(=O)NNC(=O)Nc2ccc(Br)cc2)cc1`, 8.07.
The compound `Cc1ccc(S(=O)(=O)NC(=O)NNC(=O)c2ccc(S(N)(=O)=O)cc2)cc1` showed a pKi in test [1] of 8.24.
Still for that read-out and setting: the value for `Cc1ccc(S(=O)(=O)NC(=O)NNC(=O)c2ccccc2S(N)(=O)=O)cc1` was 7.15; that for `NS(=O)(=O)c1ccc(C(=O)NNC(=O)Nc2ccc(Oc3ccccc3)cc2)cc1` was 8.10.
The same measure, in the same setting: the result for `NS(=O)(=O)c1ccc(C(=O)NNC(=O)NS(=O)(=O)c2ccccc2)cc1` reads 7.46; that for `NNc1ccc(S(N)(=O)=O)cc1F`, 6.87; that for `NS(=O)(=O)c1ccc(C(=O)NNC(=O)NC2c3ccccc3-c3ccccc32)cc1`, 7.89.
In turn, `NNc1ccc(S(N)(=O)=O)cc1Cl` gave a pKi in test [1] of 6.83.
The same measure, in the same setting: the value for `Cc1ccccc1S(=O)(=O)NC(=O)NNC(=O)c1ccccc1S(N)(=O)=O` was 7.08; that for `NS(=O)(=O)c1ccc(C(=O)NNC(=O)Nc2ccc(C34CC5CC(CC(C5)C3)C4)cc2)cc1` was 7.62.
On the same count and under the same terms, the value for `NS(=O)(=O)c1ccc(C(=O)NNC(=O)NS(=O)(=O)c2ccc(F)cc2)cc1` was 8.21; that for `NS(=O)(=O)c1ccc(C(=O)NNC(=O)Nc2ccc(Cc3ccccc3)cc2)cc1` was 8.15.

For orientation: pKi means the negative decadic logarithm of the Ki, by convention in mol/L. A higher pKi goes with a low Ki.
